# Source: US11207277B2, “Methods of treating diseases associated with high-fat diet and vitamin a deficiency using retinoic acid receptor agonists” (Cornell University, priority 2013, dated 2021)
# Entries after “also recorded” stand apart in the source; their conditions may differ.
# Legend:
# 4-hydroxynonenal (4-HNE) = assay: 4-HNE staining of liver sections; assay type: in vivo, mice; details: HF diet + AC261066 vs HF diet group
# Excerpt: (§1) WT male C57/BL6 male mice were maintained on either a standard laboratory chow-fed diet (CFD) with 13% kcal fat, (diet #5053, Lab Diet, Inc, St. Louis, Mo.) or a high fat, western style diet (HFD) with 60% kcals from fat, (diet #58126, Lab Diet, Inc., St. Louis, Mo.) for 4 months. One month after the start of the high fat diet treatment, the high fat diet group was further split into 2 groups for 3 months: i) high fat diet and the drinking water containing 1% DMSO; ii) high fat diet and the drinking water containing 1.5 mg/100 ml AC261066, a specific RARβ agonist. Then mice were sacrificed by cervical dislocation. Blood and various tissue samples were harvested.
# Paraffin-embedded sections (from two to four mice per group) were deparaffinized and rehydrated, and antigen retrieval was performed using an antigen unmasking solution (Vector Laboratories, H-3300). After quenching endogenous peroxidase with 3% H2O2, the tissue sections were blocked with the blocking reagent (from the M.O.M. kit from Vector Laboratories). Then, tissue sections were incubated with a 4-HNE antibody (1:400; mouse monoclonal antibody; Abcam, ab48506) overnight at 4° C. The sections were then incubated with secondary antibodies (1:200, anti-mouse IgG from the M.O.M kit). As a negative control, sections were stained without incubation with primary antibodies. […]
# alpha-SMA = assay: Semi-quantitative PCR liver, alpha-SMA; assay type: in vivo; details: HF diet mice + AC261066 or CD1530; vs HF-vehicle
# Excerpt: as §1
# Total RNA was extracted from mouse tissues using TRIzol reagent (Life technologies) and (1 μg) was used to synthesize cDNA. cDNA synthesis was performed at 42° C. for 1 h in a final volume of 20 μl using qScript (Quanta, MD). Semi-quantitative PCR were performed Taq DNA polymerase (Invitrogen, CA). Three step PCR was run as follows: 94° C. for 30 s, 58-64° C. for 45 s for primer annealing and 72° C. for 1 min for primer extension. The number of cycles for each primer pair for amplification in the linear range was determined experimentally. PCR products were resolved 2% agarose gels and visualized by staining with ehtidium bromide. Primers for gene expression used were as follows: […]
# renal lipids = assay: Oil red O staining of kidney sections; assay type: in vivo; details: HF diet mice + AC261066 vs HF vehicle
# all-trans retinol = assay: HPLC analysis of serum retinol; assay type: in vivo; details: CF, HF and HF+AC261066 fed mice
# Excerpt: as §1
# The frozen liver tissue samples (˜100 mg) were homogenized in 500 μl cold phosphate-buffered saline (PBS). In addition, 100 μl serum was diluted in cold PBS to total volume of 500 μl. Retinyl acetate was added to each sample before the retinoid extraction for the calculation of extraction efficiency. The retinoids were extracted into 350 μl of organic solution (acetonitrile/butanol, 50:50, v/v) in the dark. The high performance liquid chromatography (HPLC) was performed using a Waters Millennium system (Waters). […] The amounts of retinoids were calculated from the areas under the peaks detected at the wave-length of 325 nm. […]
smiles,measurement,setting,value
CCCCOCCOc1nc(-c2ccc(C(=O)O)c(F)c2)sc1C [AC261066],4-HNE levels (oxidative stress) in liver,4-hydroxynonenal (4-HNE),reduces oxidative stress and ROS; also recorded: lower 4-HNE levels than those from the high fat diet group
same,hepatic mRNA levels of alpha-SMA,alpha-SMA,also decreased
same,kidney lipid accumulation (oil red O),renal lipids,comparably less oil red o positive areas
same,serum levels of all-trans retinol,all-trans retinol,not different
